Test results as given in patent US12358886B2, “Heterocyclic compounds for use in the treatment of cancer” (Artios Pharma Limited, priority 2019, dated 2025).
pIC50: −log10 of the molar value.

The compounds below were run against Polθ protein (amino acids 2-2590) (Homo sapiens, UniProt O75417) (assay: Polθ full length enzyme potency assay (PicoGreen)). Conditions: Polθ IC50 (nM), full length N-His, C-term FLAG tagged Polθ, PicoGreen fluorescence, 12 point concentration response.
Polθ protein (amino acids 2-2590), sequence (O75417 2-2590): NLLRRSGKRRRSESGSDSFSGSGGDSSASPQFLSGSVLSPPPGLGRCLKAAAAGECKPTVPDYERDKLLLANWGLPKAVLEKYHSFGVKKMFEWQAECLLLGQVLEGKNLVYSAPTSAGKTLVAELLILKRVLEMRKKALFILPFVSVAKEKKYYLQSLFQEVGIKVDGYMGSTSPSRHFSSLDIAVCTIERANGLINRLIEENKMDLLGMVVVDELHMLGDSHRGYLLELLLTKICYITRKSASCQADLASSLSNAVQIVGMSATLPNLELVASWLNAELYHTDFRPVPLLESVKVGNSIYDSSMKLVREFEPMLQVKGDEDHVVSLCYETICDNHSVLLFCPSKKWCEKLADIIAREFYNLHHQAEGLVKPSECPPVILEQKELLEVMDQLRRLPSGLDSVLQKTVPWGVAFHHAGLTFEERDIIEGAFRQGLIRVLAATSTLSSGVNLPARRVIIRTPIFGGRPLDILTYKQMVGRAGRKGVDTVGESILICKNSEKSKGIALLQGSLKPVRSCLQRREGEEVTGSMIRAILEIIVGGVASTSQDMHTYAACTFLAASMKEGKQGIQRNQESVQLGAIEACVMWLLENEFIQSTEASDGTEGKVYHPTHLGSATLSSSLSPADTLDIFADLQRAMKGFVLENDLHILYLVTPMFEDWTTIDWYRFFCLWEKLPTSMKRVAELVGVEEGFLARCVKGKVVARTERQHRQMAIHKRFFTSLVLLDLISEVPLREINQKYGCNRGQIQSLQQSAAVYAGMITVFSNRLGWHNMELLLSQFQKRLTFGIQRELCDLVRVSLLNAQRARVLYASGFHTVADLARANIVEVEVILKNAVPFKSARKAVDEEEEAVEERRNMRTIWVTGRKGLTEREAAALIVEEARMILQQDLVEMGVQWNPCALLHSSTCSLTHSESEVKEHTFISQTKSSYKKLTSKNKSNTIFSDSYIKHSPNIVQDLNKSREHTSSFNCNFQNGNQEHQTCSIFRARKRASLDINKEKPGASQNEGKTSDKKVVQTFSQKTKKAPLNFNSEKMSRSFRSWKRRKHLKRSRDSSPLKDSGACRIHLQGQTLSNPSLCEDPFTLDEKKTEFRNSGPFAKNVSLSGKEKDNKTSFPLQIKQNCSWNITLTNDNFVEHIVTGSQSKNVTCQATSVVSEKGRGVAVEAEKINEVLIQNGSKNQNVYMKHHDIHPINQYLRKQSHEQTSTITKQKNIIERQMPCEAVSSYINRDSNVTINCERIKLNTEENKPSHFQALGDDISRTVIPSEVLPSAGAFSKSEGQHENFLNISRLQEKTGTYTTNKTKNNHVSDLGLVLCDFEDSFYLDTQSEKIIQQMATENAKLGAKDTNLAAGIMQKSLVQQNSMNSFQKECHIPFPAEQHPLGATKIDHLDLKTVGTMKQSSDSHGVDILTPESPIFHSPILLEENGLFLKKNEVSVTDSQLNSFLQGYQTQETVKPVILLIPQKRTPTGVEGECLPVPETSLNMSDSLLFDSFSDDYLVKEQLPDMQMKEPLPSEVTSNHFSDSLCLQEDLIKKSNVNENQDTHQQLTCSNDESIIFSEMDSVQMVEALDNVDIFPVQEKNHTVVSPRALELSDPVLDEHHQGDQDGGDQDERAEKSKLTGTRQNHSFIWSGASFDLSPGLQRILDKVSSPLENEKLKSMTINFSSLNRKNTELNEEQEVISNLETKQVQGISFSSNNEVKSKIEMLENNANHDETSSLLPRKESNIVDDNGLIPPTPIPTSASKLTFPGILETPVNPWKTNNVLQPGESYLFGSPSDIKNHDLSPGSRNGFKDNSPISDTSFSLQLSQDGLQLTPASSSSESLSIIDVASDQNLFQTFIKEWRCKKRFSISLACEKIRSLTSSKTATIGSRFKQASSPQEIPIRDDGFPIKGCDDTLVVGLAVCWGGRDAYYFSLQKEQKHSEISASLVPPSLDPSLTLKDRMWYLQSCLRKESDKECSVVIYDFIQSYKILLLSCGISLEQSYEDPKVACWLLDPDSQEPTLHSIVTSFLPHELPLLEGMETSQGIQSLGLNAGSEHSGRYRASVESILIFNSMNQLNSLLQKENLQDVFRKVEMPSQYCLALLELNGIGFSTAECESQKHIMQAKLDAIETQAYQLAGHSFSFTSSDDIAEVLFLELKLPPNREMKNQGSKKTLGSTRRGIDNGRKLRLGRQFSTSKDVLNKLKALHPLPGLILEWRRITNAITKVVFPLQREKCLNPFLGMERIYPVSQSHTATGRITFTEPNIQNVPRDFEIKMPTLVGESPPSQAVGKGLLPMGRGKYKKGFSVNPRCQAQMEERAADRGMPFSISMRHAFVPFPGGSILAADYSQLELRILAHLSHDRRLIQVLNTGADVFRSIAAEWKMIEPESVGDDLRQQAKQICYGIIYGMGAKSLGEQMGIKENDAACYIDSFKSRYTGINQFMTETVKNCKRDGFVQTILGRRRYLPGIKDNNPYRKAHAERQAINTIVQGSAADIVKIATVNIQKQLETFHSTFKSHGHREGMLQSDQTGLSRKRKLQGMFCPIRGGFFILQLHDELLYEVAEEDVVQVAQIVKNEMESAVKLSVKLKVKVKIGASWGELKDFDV

Row | SMILES | IC50 [nM]
1 | Cc1cc(C(F)(F)F)cc(N2C(=O)OC[C@H]2C(=O)N(C)c2ccc3c(c2)COC3)n1 [Example 102, (S)-N-(1,3-Dihydroisobenzofuran-5-yl)-N-methyl-3-(6-methyl-4-(trifluoromethyl)pyridin-2-yl)-2-oxooxazolidine-4-carboxamide] | 86
2 | Cc1cc(C(F)(F)F)cc(N2C(=O)OC[C@H]2C(=O)N(C)c2ccc(C)c(O)c2)n1 [Example 105, (S)—N-(3-Hydroxy-4-methylphenyl)-N-methyl-3-(6-methyl-4-(trifluoromethyl)pyridin-2-yl)-2-oxooxazolidine-4-carboxamide] | 19
3 | CN(C(=O)[C@@H]1COC(=O)N1c1cc(C(F)(F)F)cc(Cl)n1)c1ccc(F)c(Cl)c1 [Example 113, (S)-3-(6-Chloro-4-(trifluoromethyl)pyridin-2-yl)-N-(3-chloro-4-fluorophenyl)-N-methyl-2-oxooxazolidine-4-carboxamide] | 21
4 | C=Cc1cc(C(F)(F)F)cc(N2C(=O)OC[C@H]2C(=O)N(C)c2ccc(F)c(Cl)c2)n1 [Example 114, (S)—N-(3-Chloro-4-fluorophenyl)-N-methyl-2-oxo-3-(4-(trifluoromethyl)-6-vinylpyridin-2-yl)oxazolidine-4-carboxamide] | 46
5 | CCc1cc(C(F)(F)F)cc(N2C(=O)OC[C@H]2C(=O)N(C)c2ccc(F)c(Cl)c2)n1 [Example 115, (S)—N-(3-Chloro-4-fluorophenyl)-3-(6-ethyl-4-(trifluoromethyl)pyridin-2-yl)-N-methyl-2-oxooxazolidine-4-carboxamide] | 54
6 | Cc1cc(Br)cc(N2C(=O)OC[C@H]2C(=O)N(C)c2ccc(F)c(Cl)c2)n1 [Example 116, (S)-3-(4-Bromo-6-methylpyridin-2-yl)-N-(3-chloro-4-fluorophenyl)-N-methyl-2-oxooxazolidine-4-carboxamide] | 71
7 | C=C(C)c1cc(C)nc(N2C(=O)OC[C@H]2C(=O)N(C)c2ccc(F)c(Cl)c2)c1 [Example 117, (S)—N-(3-Chloro-4-fluorophenyl)-N-methyl-3-(6-methyl-4-(prop-1-en-2-yl)pyridin-2-yl)-2-oxooxazolidine-4-carboxamide] | 61
8 | Cc1cc(C(C)C)cc(N2C(=O)OC[C@H]2C(=O)N(C)c2ccc(F)c(Cl)c2)n1 [Example 118, (S)—N-(3-Chloro-4-fluorophenyl)-3-(4-isopropyl-6-methylpyridin-2-yl)-N-methyl-2-oxooxazolidine-4-carboxamide] | 25

Continued, values first:

Row | IC50 [nM] | SMILES
9 | 11 | Cc1cc(C(F)(F)F)cc(N2C(=O)OC[C@H]2C(=O)N(C)c2ccc(Cl)cc2F)n1 [Example 97, (S)-N-(4-Chloro-2-fluorophenyl)-N-methyl-3-(6-methyl-4-(trifluoromethyl)pyridin-2-yl)-2-oxooxazolidine-4-carboxamide]
10 | 4 | Cc1cc(C(F)(F)F)cc(N2C(=O)OC[C@H]2C(=O)N(C)c2ccc(F)c(C)c2F)n1 [Example 100, (S)-N-(2,4-Difluoro-3-methylphenyl)-N-methyl-3-(6-methyl-4-(trifluoromethyl)pyridin-2-yl)-2-oxooxazolidine-4-carboxamide]
11 | 23 | Cc1cc(C(F)(F)F)cc(N2C(=O)OC[C@H]2C(=O)N(C)c2ccc(Cl)c(F)c2F)n1 [Example 101, (S)-N-(4-Chloro-2,3-difluorophenyl)-N-methyl-3-(6-methyl-4-(trifluoromethyl)pyridin-2-yl)-2-oxooxazolidine-4-carboxamide]
12 | 324 | Cc1cc(C(F)(F)F)cc(N2C(=O)OC[C@H]2C(=O)N(C)c2ccc(F)c(O)c2)n1 [Example 106, (S)—N-(4-Fluoro-3-hydroxyphenyl)-N-methyl-3-(6-methyl-4-(trifluoromethyl)pyridin-2-yl)-2-oxooxazolidine-4-carboxamide]
13 | 18 | C=Cc1c(F)ccc(N(C)C(=O)[C@@H]2COC(=O)N2c2cc(C(F)(F)F)cc(C)n2)c1F [Example 107, (S)—N-(2,4-Difluoro-3-vinylphenyl)-N-methyl-3-(6-methyl-4-(trifluoromethyl)pyridin-2-yl)-2-oxooxazolidine-4-carboxamide]
14 | 12 | CCc1c(F)ccc(N(C)C(=O)[C@@H]2COC(=O)N2c2cc(C(F)(F)F)cc(C)n2)c1F [Example 108, (S)—N-(3-Ethyl-2,4-difluorophenyl)-N-methyl-3-(6-methyl-4-(trifluoromethyl)pyridin-2-yl)-2-oxooxazolidine-4-carboxamide]
15 | 49 | C=Cc1cc(N(C)C(=O)[C@@H]2COC(=O)N2c2cc(C(F)(F)F)cc(C)n2)ccc1F [Example 109, (S)—N-(4-Fluoro-3-vinylphenyl)-N-methyl-3-(6-methyl-4-(trifluoromethyl)pyridin-2-yl)-2-oxooxazolidine-4-carboxamide]
16 | 21 | CCc1cc(N(C)C(=O)[C@@H]2COC(=O)N2c2cc(C(F)(F)F)cc(C)n2)ccc1F [Example 110, (S)—N-(3-Ethyl-4-fluorophenyl)-N-methyl-3-(6-methyl-4-(trifluoromethyl)pyridin-2-yl)-2-oxo-oxazolidine-4-carboxamide]
17 | 18 | C=Cc1ccc(N(C)C(=O)[C@@H]2COC(=O)N2c2cc(C(F)(F)F)cc(C)n2)c(F)c1 [Example 111, (S)—N-(2-Fluoro-4-vinylphenyl)-N-methyl-3-(6-methyl-4-(trifluoromethyl)pyridin-2-yl)-2-oxooxazolidine-4-carboxamide]
18 | 11 | CCc1ccc(N(C)C(=O)[C@@H]2COC(=O)N2c2cc(C(F)(F)F)cc(C)n2)c(F)c1 [Example 112, (S)—N-(4-Ethyl-2-fluorophenyl)-N-methyl-3-(6-methyl-4-(trifluoromethyl)pyridin-2-yl)-2-oxooxazolidine-4-carboxamide]

Same assay, conditions: read-out: Polθ IC50; full length N-His, C-term FLAG tagged Polθ, PicoGreen fluorescence, 12 point concentration response

Row | pIC50 | SMILES
19 | 7.82 | Cc1cc(C(F)(F)F)cc(N2C(=O)OC[C@H]2C(=O)N(C)c2cccc(Cl)c2F)n1 [Example 95, (S)-N-(3-Chloro-2-fluorophenyl)-N-methyl-3-(6-methyl-4-(trifluoromethyl)pyridin-2-yl)-2-oxooxazolidine-4-carboxamide]
20 | 7.62 | Cc1cc(C(F)(F)F)cc(N2C(=O)OC[C@H]2C(=O)N(C)c2cc(Cl)ccc2F)n1 [Example 96, (S)-N-(5-Chloro-2-fluorophenyl)-N-methyl-3-(6-methyl-4-(trifluoromethyl)pyridin-2-yl)-2-oxooxazolidine-4-carboxamide]
21 | 7.49 | Cc1cc(C(F)(F)F)cc(N2C(=O)OC[C@H]2C(=O)N(C)c2cc(Cl)c(F)cc2F)n1 [Example 98, (S)-N-(5-Chloro-2,4-difluorophenyl)-N-methyl-3-(6-methyl-4-(trifluoromethyl)pyridin-2-yl)-2-oxooxazolidine-4-carboxamide]
22 | 7.27 | CCN(C(=O)[C@@H]1COC(=O)N1c1cc(C(F)(F)F)cc(C)n1)c1ccc(F)c(Cl)c1 [Example 103, (S)-N-(3-Chloro-4-fluorophenyl)-N-ethyl-3-(6-methyl-4-(trifluoromethyl)-pyridin-2-yl)-2-oxooxazolidine-4-carboxamide]
23 | 7.46 | Cc1cc(C(F)(F)F)cc(N2C(=O)OC[C@H]2C(=O)N(c2ccc(F)c(Cl)c2)C(C)C)n1 [Example 104, (S)-N-(3-Chloro-4-fluorophenyl)-N-isopropyl-3-(6-methyl-4-(trifluoromethyl)pyridin-2-yl)-2-oxooxazolidine-4-carboxamide]
